Test results published in patent US8728472B2, “Antibodies that bind selectively to P25 and uses therefor” (The Board of Regents of the University of Texas System, priority 2009, dated 2014).
Residues, ends and D or L forms follow the SMILES beside them. *: point of attachment. Cbz = O=C(OCc1ccccc1)*

Assays:
D1 dopamine receptor = molecular target: T1, D1 dopamine receptor (Mus musculus, UniProt Q61616); experiment: D1 agonist-induced PKA-dependent phosphorylation in striatal slices; format: cell-based
T1 construct: from tissue; host or cells: acute mouse striatal slices
T1 sequence (Q61616 whole entry): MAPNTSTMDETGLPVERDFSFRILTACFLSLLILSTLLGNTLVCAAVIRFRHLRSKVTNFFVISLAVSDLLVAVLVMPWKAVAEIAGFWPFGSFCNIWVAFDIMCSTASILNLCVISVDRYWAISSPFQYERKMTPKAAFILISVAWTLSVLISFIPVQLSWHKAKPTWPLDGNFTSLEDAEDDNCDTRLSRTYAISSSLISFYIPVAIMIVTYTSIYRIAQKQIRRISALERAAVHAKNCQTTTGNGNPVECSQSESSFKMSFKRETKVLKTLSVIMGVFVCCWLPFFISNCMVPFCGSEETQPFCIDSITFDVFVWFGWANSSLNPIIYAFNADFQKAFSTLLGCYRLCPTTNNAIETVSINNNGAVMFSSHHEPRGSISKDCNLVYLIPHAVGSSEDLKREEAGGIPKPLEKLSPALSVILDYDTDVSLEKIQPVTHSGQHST
Protocol: Homogenates were prepared from rapidly dissected tissue or striatal slices using standard methodology (Nishi et al., 1997).

calpain = details: preincubation 20 μM, 1 h, striatal slices
Protocol: Acutely prepared coronal slices were prepared as described (Nishi et al., 1997). For OGD, slices were switched from Kreb's buffer bubbled in 95% O2/5% CO2 to 100% N2 and glucose was replaced by 10 mM sucrose for indicated periods (Sahin et al., 2008; Sahin et al., 2007). […] Homogenates were prepared from rapidly dissected tissue or striatal slices using standard methodology (Nishi et al., 1997). […] For immunostaining of cultured cells, rat primary striatal neuron cultures were prepared, subjected to control or OGD conditions, fixed and stained as described (Meyer et al., 2008).

[1] = tested on: coronal mouse brain slices; experiment: TTC viability staining of coronal brain slices subjected to OGD; format: cell-based; details: for neuroprotective effect against OGD-induced neuronal death / viability (TTC staining) after 60 min OGD: incubation 1 h prior to and during OGD; for viability (TTC staining) after 60 min OGD: 60 min without oxygen and glucose
Protocol: (§1) Slices were treated with SKF81297 (1 μM, 10 min), calpain inhibitor 3, calpeptin (20 μM, 1 h), Ca^2+-free Krebs (1 h), and Indo A or B (1 h) at indicated concentrations. See Methods.
(§2) Abs to p35, DARPP-32 (Nishi et al., 1997), GFAP, and p25 were used to stain rat coronal cryosections (20 μm) from control and stroked hemispheres. […] See Methods for further details.
Having established this pharmacological approach, the effect of OGD on neuronal viability was next quantitatively assessed by 2, 3, 5-triphenyltetrazolium chloride (TTC) staining (Bederson et al., 1986) (FIGS. 8E and 8F). TTC staining was readily observed in coronal mouse brain slices oxygenated in Kreb's buffer for 1 h. OGD induced time-dependent neuronal death with TTC staining reduced to 60.8±2.1 and 0.6±7.9% of control levels by exposure to ischemic conditions for 30 and 60 min, respectively.

Cdk5 = molecular target: T2, Cdk5 (Mus musculus, UniProt P49615); experiment: Cdk5 inhibition in striatal slices by blotting phospho-Thr75 DARPP-32; format: cell-based
T2 construct: from tissue; host or cells: acute striatal slices
T2 sequence (P49615 whole entry): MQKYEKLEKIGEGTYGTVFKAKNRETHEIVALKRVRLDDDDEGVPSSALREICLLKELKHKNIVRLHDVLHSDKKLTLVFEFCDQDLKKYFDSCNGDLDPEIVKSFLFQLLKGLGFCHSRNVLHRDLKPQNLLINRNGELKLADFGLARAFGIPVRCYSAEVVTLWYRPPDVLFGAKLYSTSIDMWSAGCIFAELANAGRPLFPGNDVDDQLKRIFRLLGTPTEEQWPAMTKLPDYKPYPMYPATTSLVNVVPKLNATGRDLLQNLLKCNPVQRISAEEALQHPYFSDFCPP
T2 sequence (P61809 2-307 partner limits assumed): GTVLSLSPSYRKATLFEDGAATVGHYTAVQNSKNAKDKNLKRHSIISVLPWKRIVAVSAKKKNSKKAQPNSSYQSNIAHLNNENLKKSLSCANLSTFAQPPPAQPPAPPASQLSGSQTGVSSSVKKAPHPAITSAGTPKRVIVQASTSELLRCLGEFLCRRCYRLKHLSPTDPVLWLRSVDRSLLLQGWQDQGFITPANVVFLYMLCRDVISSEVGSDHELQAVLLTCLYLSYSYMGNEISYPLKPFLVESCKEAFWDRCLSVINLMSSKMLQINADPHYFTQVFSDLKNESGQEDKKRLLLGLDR
Protocol: as §1, §2
To assess the deleterious effects of aberrantly active Cdk5/p25, the selective and potent Cdk5 inhibitor, indolinone A (Gillardon et al., 2005) (Indo A) was employed. First, its ability to inhibit Cdk5 in striatal slices was assessed by treating striatal slices with various concentrations (1-10 μM) of Indo A and blotting the lysates for the defined Cdk5 site, phospho-Thr75 DARPP-32 (Bibb et al., 1999). […] In contrast the congener Indolinone B, which is limited in specificity to Cdk4 (Weishaupt et al., 2003), had no effect on Cdk5-dependent phosphorylation of DARPP-32.

[2] = tested on: striatal projecting spiny neurons; experiment: Electrophysiological recordings (EPSP, membrane potential, field potential) in corticostriatal slices under OGD; format: cell-based; details: pre-treatment
Excerpt: Electrophysiological recordings of FPs and single unit activity were taken from slices under physiological and OGD conditions using described methodology (Calabresi et al., 1998; Picconi et al., 2003; Costa et al., 2006).
To better understand the physiological effects of shorter periods of ischemia, a neurophysiological approach was utilized. Sharp microelectrode intracellular recordings were obtained from striatal projecting spiny neurons identified according to their electrophysiological characteristics (Calabresi et al., 1998). In these neurons, a very brief period (2-3 min) of OGD induced loss of membrane potential (FIGS. 10A-B) and a transient suppression of the excitatory post-synaptic potential (EPSP) followed by a long-term increase in the EPSP amplitude in comparison to the pre-ischemic period (139.7±10.3%, n=5, p<0.05, FIG. 10C). This long-term increase of the glutamatergic transmission at corticostriatal synapses, called post-ischemic LTP (i-LTP), represents a pathological form of synaptic plasticity occurring after brain ischemia (Calabresi et al., 2003; Calabresi et al., 1998; Calabresi et al., 2002). […] Extracellular field potential (FP) recordings were also obtained from corticostriatal slices. In control conditions, 10 min of OGD caused an irreversible loss of FP (FIGS. 10E-F).

| Compound | OGD-dependent p25 generation (calpain) | TTC staining intensity relative to 60 min OGD without inhibitor [1] [fold] | neuroprotective effect against OGD-induced neuronal death [1] | viability (TTC staining) after 60 min OGD [1] | also measured |
| --- | --- | --- | --- | --- | --- |
| Oc1cc2c(c(Cl)c1O)CCNCC2c1ccccc1 (centres unmarked) [SKF81297] |  |  |  |  | increase in phospho-Ser845 GluR1 (D1 dopamine receptor; oxygenated slices, 1 μM, 5 min): 2.0±0.1 fold; increase in phospho-Thr34 DARPP-32 (D1 dopamine receptor; oxygenated slices, 1 μM, 5 min): 3.6±0.3 fold |
| CC(C)[C@H](NC(=O)OCc1ccccc1)C(=O)N[C@H](C=O)Cc1ccccc1 [calpain inhibitor 3] (Cbz-Val-Phe-aldehyde) | prevented p25 generation |  |  |  |  |
| CCCC[C@@H](C=O)NC(=O)[C@H](CC(C)C)NC(=O)OCc1ccccc1 [calpeptin] | prevented p25 generation | 111.3±6.0 | significantly blocked neuronal death | 69.6±6.6 % of control levels |  |
| Indolinone B [Indo B] |  |  | no such neuroprotective effect |  | effect on Cdk5-dependent phosphorylation of DARPP-32 (Cdk5): had no effect |
| indolinone A [Indo A] |  | 95.5±9.6 | significantly blocked neuronal death | 59.7±6.0 % of control levels | phospho-Thr75 DARPP-32, reduction to % of basal levels (Cdk5; 5 μM): 26±8 % of basal levels; IC50 (Cdk5; 1-10 μM, 1 h): 290 nM; increase in phospho-Ser845 in response to SKF81297 after 10 min of ischemia (D1 dopamine receptor; preincubation with Indo A 10 μM, 1 h, 10 min OGD/10 min reperfusion): 4.7±1.2 fold; induction of i-LTP at corticostriatal synapses ([2]; 3 min OGD, n=5): completely blocked the induction of i-LTP; loss of field potential (FP) induced by ischemia ([2]; 10 min OGD): significantly reduced the loss of FP |
